Patent publication US10420734B2, “Method of treating cancer using selective estrogen receptor modulators” (Duke University, priority 2014, dated 2019)
Read-outs that look alike come from different tables or passages of the source.

Legend:
[1] = cited from earlier work
[2] = system: LTED MCF7 cells; assay: LTED MCF7 cell proliferation assay; assay type: cell-based; conditions: model of aromatase resistance, 10^-11-10^-6 M, 8 day assay
[3] = biological target: T1, human estrogen receptor alpha (ESR1) (Homo sapiens, UniProt P03372); assay: ERE-luciferase reporter assay in transiently transfected SKBR3 cells (ESR1); assay type: cell-based
T1 construct: expressed in transfected cells; host or cells: SKBR3
T1 sequence (P03372 1-595): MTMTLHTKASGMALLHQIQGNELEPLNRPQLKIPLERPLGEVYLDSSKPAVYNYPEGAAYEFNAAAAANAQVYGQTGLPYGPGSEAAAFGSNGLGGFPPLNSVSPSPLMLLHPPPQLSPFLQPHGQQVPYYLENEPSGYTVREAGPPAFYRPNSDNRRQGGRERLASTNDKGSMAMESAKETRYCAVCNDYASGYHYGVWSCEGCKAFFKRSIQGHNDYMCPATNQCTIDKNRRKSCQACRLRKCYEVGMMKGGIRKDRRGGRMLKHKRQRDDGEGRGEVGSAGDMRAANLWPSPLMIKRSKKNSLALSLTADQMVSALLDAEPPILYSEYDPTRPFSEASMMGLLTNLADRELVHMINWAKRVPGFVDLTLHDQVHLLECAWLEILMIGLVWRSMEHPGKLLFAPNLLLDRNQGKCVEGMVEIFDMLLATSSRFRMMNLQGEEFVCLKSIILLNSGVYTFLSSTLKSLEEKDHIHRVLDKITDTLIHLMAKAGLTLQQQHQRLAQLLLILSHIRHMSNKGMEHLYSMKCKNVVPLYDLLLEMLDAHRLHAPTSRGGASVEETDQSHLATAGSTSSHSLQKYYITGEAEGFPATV
Description: (§1) The ability of RAD1901 (FIG. 5A) to modulate the […] estradiol (E2) dependent transcriptional activity of the human estrogen receptor alpha (ESR1) and human estrogen receptor beta (ESR2) was assessed in transiently transfected SKBR3 cells using a synthetic reporter gene. […] For FIG. 5B, SKBR3 cells were plated in phenol red free media supplemented with charcoal stripped FBS (CFS) 24 hours prior to transfection with an ERE-luciferase reporter together with ESR1 or ESR2 expression vectors. 24 hours after transfection, cells were treated with E2 (10 nM) together with RAD1901 (10^−10-10^−6 M) for 24 hours prior to harvest and analysis of luciferase activity normalized to co-transfected β-galactosidase control. […] For FIG. 5D, MCF7 cells were plated in phenol red free media supplemented with CFS 24 hours prior to treatment, and were treated with 10^−9 M E2 as well as with the indicated ligands (10^−11-10^−6 M) on days 1, 4, and 6 of an 8 day proliferation assay. DNA content as assessed by fluorescence was measured as a surrogate for cell proliferation. The relative increase in DNA fluorescence was calculated by normalizing to baseline values detected in a duplicate plate of cells that was harvested on day 1 prior to the initial treatment. […] For FIG. 5F, expression of ESR1 target genes in tumors was analyzed essentially as in (C).

[4] = system: ESR1 target genes; assay: ESR1 target gene expression profile in MCF7 cells; assay type: cell-based; conditions: 24 hours
Description: A recent extensive microarray analysis has identified “sentinel” subsets of ER-responsive genes that can differentiate between ER agonists, SERMs and SERDs. […] MCF7 breast cancer cells were treated 24 hours with RAD1901 (0-1 μM) in the presence or absence of 17β-estradiol (1 nM). RNA isolation and the analysis of the expression of target genes Anterior gradient protein 2 (AGR2) and KCNK6 was conducted as in Example 3.
The expression of ESR1 target genes responsive to (FIG. 10A) agonists, (FIG. 10B) primarily SERMs, or (FIG. 10C) SERMs and agonists was analyzed as in FIG. 5. […] Significant target gene regulation (*p<0.05) as compared to the vehicle control was detected by 2 way ANOVA followed by Fisher's LSD (Graphpad Prism 6). […] Interaction of ESR1 with the Gal4DBD peptide constructs was detected through activation of a Gal4-responsive luciferase reporter construct and was normalized to detected β-galactosidase activity expressed in a constitutive manner using a second vector. Normalized response was expressed as fold increase over the detected level of interaction between Gal4DBD alone and ESR1-VP16 in the absence of ligand (Veh). For FIG. 10E, the effect of SERMs and SERDs (10^−6 M) on the proliferation of MCF7 cells in response to E2 (10^−9 M) or insulin (2×10^−9 M) was evaluated as in FIG. 5. […]

[5] = biological target: T2, human estrogen receptor beta (ESR2) (Homo sapiens, UniProt Q92731); assay: ERE-luciferase reporter assay in transiently transfected SKBR3 cells (ESR2); assay type: cell-based; conditions: ESR2 isoform, E2 10 nM, RAD1901 10^-10-10^-6 M, 24 hours
T2 construct: expressed in transfected cells; host or cells: SKBR3
Description: as §1

[6] = system: MCF7 cells; assay: E2-stimulated MCF7 cell proliferation assay (8 day, DNA fluorescence); assay type: cell-based; conditions: 10^-9 M E2, ligand 10^-11-10^-6 M, 8 day assay
Description: Assays evaluating the effects of SERDs and SERMs on cell proliferation were performed as described (Wardell et al., (2013) Clin Cancer Res 19 (9):2420-2431).
The ability of RAD1901 (FIG. 5A) to modulate the […] estradiol (E2) dependent transcriptional activity of the human estrogen receptor alpha (ESR1) and human estrogen receptor beta (ESR2) was assessed in transiently transfected SKBR3 cells using a synthetic reporter gene. […] For FIG. 5B, SKBR3 cells were plated in phenol red free media supplemented with charcoal stripped FBS (CFS) 24 hours prior to transfection with an ERE-luciferase reporter together with ESR1 or ESR2 expression vectors. 24 hours after transfection, cells were treated with E2 (10 nM) together with RAD1901 (10^−10-10^−6 M) for 24 hours prior to harvest and analysis of luciferase activity normalized to co-transfected β-galactosidase control. […] DNA content as assessed by fluorescence was measured as a surrogate for cell proliferation. The relative increase in DNA fluorescence was calculated by normalizing to baseline values detected in a duplicate plate of cells that was harvested on day 1 prior to the initial treatment. […] For FIG. 5F, expression of ESR1 target genes in tumors was analyzed essentially as in (C).

[7] = system: MCF7 cells; assay: MCF7 proliferation in response to E2 or insulin; assay type: cell-based; conditions: SERMs and SERDs 10^-6 M, insulin 2×10^-9 M
Description: The expression of ESR1 target genes responsive to (FIG. 10A) agonists, (FIG. 10B) primarily SERMs, or (FIG. 10C) SERMs and agonists was analyzed as in FIG. 5. Relative changes of these and additional target genes designed to evaluate dose dependent response to RAD1901 are presented in FIG. 11. Significant target gene regulation (*p<0.05) as compared to the vehicle control was detected by 2 way ANOVA followed by Fisher's LSD (Graphpad Prism 6). […] Triplicate wells of SKBR3 cells were transfected with plasmids expressing ESR1 fused to VP16 together with Gal4DBD alone (control) or Gal4DBD fused to ESR1 interacting peptides noted on the horizontal axis. Cells were then treated with the indicated ESR1 ligands (10^−7 M unless otherwise indicated). Interaction of ESR1 with the Gal4DBD peptide constructs was detected through activation of a Gal4-responsive luciferase reporter construct and was normalized to detected β-galactosidase activity expressed in a constitutive manner using a second vector. Normalized response was expressed as fold increase over the detected level of interaction between Gal4DBD alone and ESR1-VP16 in the absence of ligand (Veh). For FIG. 10E, the effect of SERMs and SERDs (10^−6 M) on the proliferation of MCF7 cells in response to E2 (10^−9 M) or insulin (2×10^−9 M) was evaluated as in FIG. 5. Statistically similar treatments (2-way ANOVA followed by Bonferroni comparison) are indicated by letters. […] The expression of ESR1 target genes responsive to (A) agonists, (B) primarily SERMs, or (C) SERMs and agonists was analyzed using RT qPCR following RNA isolation. mRNA expression was normalized (ΔΔCT analysis) to the similarly detected 36B4 housekeeping. The profiles presented in dendogram format were analyzed with the Ward hierarchical clustering algorithm (JMP 11) using standardized data.

T2 sequence (Q92731 whole entry, canonical isoform): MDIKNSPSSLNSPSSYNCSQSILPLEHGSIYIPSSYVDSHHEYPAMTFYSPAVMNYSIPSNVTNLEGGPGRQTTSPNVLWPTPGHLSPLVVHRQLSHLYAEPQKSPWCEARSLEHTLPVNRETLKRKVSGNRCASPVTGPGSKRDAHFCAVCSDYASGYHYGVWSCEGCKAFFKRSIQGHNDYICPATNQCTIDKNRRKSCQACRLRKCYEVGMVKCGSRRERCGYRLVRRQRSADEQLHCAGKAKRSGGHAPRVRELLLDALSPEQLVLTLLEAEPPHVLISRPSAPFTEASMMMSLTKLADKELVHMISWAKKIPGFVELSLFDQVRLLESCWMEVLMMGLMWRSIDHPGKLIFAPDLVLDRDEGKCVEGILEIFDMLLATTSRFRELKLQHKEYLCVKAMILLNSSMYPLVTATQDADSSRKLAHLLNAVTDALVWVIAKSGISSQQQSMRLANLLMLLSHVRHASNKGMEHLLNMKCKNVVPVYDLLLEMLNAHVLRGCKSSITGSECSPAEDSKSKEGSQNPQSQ

more potent inhibitor of ESR1 than of ESR2 ([3]; ERE-luciferase reporter): 100 fold
inhibition of E2-dependent activation of an ERE-luciferase reporter ([3]; ESR1 isoform, E2 10 nM, RAD1901 10^-10-10^-6 M, 24 hours): effectively inhibited
inhibition of E2-dependent activation of an ERE-luciferase reporter [5]: effectively inhibited
Compound: CCNCCc1ccc(CN(CC)c2cc(OC)ccc2[C@@H]2CCc3cc(O)ccc3C2)cc1 [RAD1901, (R)-6-{2-{ethyl[4-(2-ethylaminoethyl)benzyl]amino}-4-methoxyphenyl}-5,6,7,8-tetrahydronaphthalen-2-ol]
induction of hot flashes ([1]; healthy postmenopausal women): induces hot flashes in healthy postmenopausal women in a dose dependent manner
hot flashes in clinical trials ([1]; higher doses tested): ineffective
hot flashes in clinical trials ([1]; lowest dose tested): effectively suppress hot flashes
brain penetrance ([1]; postmenopausal women): significant brain penetrance
cell proliferation [2]: inhibited cell proliferation
regulation of ER transactivation of target genes AGR2 and KCNK6 ([4]; RAD1901 0-1 μM, presence or absence of 17β-estradiol 1 nM): dose dependent agonist/antagonist regulation
expression pattern of ESR1 target genes (agonist-, SERM-, SERM/agonist-responsive) ([4]; RAD1901 10^-9-10^-6 M): biphasic response
E2-dependent stimulation of cell proliferation [6]: inhibited
insulin-stimulated proliferation [7]: without effect
